Several values for one entry are separate records, joined by “and”; a condition that tells them apart may be missing. Equal entries are not always repeated.
Assays:
Bean Leaf Beetle [1] = assay: Field trial, stomach poison test; type: in vivo
How it was run: (§1)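 Spray (10 psi) or dip leaves from infested plants in test solution; air-dry; put in Petri dish; add 5 or 10 insects; score mortality 0–9 at 24/48/72 h. 1–2 reps, usually 2–3 rates.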

Boll Weevil [2] = assay: Boll Weevil Test; type: in vivo, Anthonomus grandis (Coleoptera); settings: 48 h
Source text: The procedure is identical to that employed for the Mexican bean beetle and the Southern armyworm, except that 10 adult boll weevils are placed on cotton leaves that have been dipped into formulations of the test compounds. The same rating scale is used.

Squash Bug Adults = assay: Field trial, contact poison test; type: in vivo; parameters: key: 0-9 rating: 0 = 0-10% mortality, 9 = 91-100% mortality
How it was run: (§2)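 Contact spray, atomizer 10 psi, arm's length, several concentrations; infested plants in water bottles, stems wrapped in cellucotton, plants spaced apart. Scored 24, 48, 72 h; scale 0–9 by percent mortality.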

Boll Weevil [3] = assay: Field trial (first summer), topical; type: in vivo, Anthonomus grandis
How it was run: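 Field trial from the first summer in which 1 µl of test solution holding a set number of micrograms of benzimidazole was applied topically to larvae or adult insects. Mortality at a given route and concentration was scored on a 0–9 scale.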

[4] = system: Southern Corn Rootworm Adults; assay: Field trial, contact poison test; type: in vivo
How it was run: as §2

[5] = system: Red-Legged Grasshopper Adults; assay: Field trial, contact poison test; type: in vivo
How it was run: as §2

Bean Leaf Beetle [6] = assay: Field trial, contact poison test; type: in vivo
How it was run: as §2

Yellow Mealworm Larvae = assay: Field trial, topical application; type: in vivo; parameters: key: 0 = 0-10% mortality, 9 = 91-100% mortality (0-9 scale)
How it was run: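 1 μL benzimidazole solution of set microgram content applied topically to larvae or adults. Mortality read at 24, 48 and 72 h where applicable, rated 0-9 (0 = 0-10%, 9 = 91-100%); values are average mortality per concentration.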

[7] = system: Southern Corn Rootworm Adults; assay: Field trial, stomach poison test; type: in vivo; parameters: key: mortality rating on a 0 to 9 scale
How it was run: as §1

[8] = system: Striped Cucumber Beetle Adults; assay: Field trial, stomach poison test; type: in vivo; parameters: key: mortality rating on a 0 to 9 scale
How it was run: as §1

Mexican Bean Beetle = Mexican Bean Beetle Test; type: in vivo, Epilachna varivestis (Coleoptera); settings: 48 h
Method: Cuttings of four six-day old Bountiful snap bean plants containing two leaves with approximately 5 square inches of leaf surface, are placed in water. The leaves are sprayed to wetting with about 5-10 ml. of a formulation containing a pre-determined level of the test compound. Half of the formulation is sprayed on the top surface and half on the bottom surface of the leaf using a DeVilbiss atomizer at 10 psi held at a distance of about 18 inches from the leaf. After the leaves have dried, they are cut from the stem and placed separately in petri dishes. Ten third instar, nonmolting Mexican bean beetle larvae grown on Bountiful snap beans are placed on each leaf. Controls consist of two leaves sprayed with 5 ml. of a 500 ppm malathion formulation (reference standard), two leaves sprayed with the formulation without the active ingredient and two leaves are held as untreated controls. After 48 hours, a mortality count is made and the amount of feeding noted. Moribund larvae are counted as dead.

Milkweed Bug = Milkweed Bug Test; type: in vivo, Oncopeltis fasciatus (Hemiptera); settings: 48 h
How it was run: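 Ten chilled adult milkweed bugs per cage sprayed with 5 ml test formulation at 10 psi, then fed and watered. Mortality, counting moribund as dead, scored 48 h after spraying; 500 ppm malathion as reference, unsprayed cages as controls.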

Oriental Cockroach = assay: Oriental Roach Test; type: in vivo, Blatta orientalis (Orthoptera); settings: 24 h
How it was run: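 Ten late-instar (3-4 month) nymphs per cage, held at 70°-80° F., sprayed with 5 ml of insecticide formulation at a specified amount. Cockroaches kept unfed and unwatered; mortality counted 24 hours post-spray, with insects staying on the cage bottom after light shaking scored dead.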

Compound: O=[N+]([O-])c1cc(C(F)(F)F)cc2nc(C(F)(F)F)[nH]c12 [A, 2,6-bis(trifluoromethyl)-4-nitrobenzimidazole]
- average mortality rating (Bean Leaf Beetle [1]; 10 ppm): 0 (0-10 percent)
- average mortality rating (Bean Leaf Beetle [1]; 25 ppm): 0 (0-10 percent)
- average mortality rating (Bean Leaf Beetle [1]; 50 ppm): 1
- mortality rating (Boll Weevil [2]; 5 ppm): 7.5
- mortality rating (Boll Weevil [2]; 10 ppm): 6.7
- mortality rating (Boll Weevil [2]; 25 ppm): 8.8
- mortality rating (Boll Weevil [2]; 50 ppm): 8.5
- average mortality rating (Squash Bug Adults; 125 ppm): 0 (0-10 percent)
- average mortality rating (Squash Bug Adults; 250 ppm): 6
- average mortality rating (Squash Bug Adults; 500 ppm): 9 (91-100 percent mortality)
- average mortality rating (Squash Bug Adults; 750 ppm): 9 (91-100 percent mortality)
- insect mortality rating (Boll Weevil [3]; .078125 μg/μl): 9 (91-100 percent mortality)
- average mortality rating ([4]; 25 ppm): 4
- average mortality rating ([4]; 50 ppm): 6
- average mortality rating ([4]; 100 ppm): 8
- average mortality rating ([5]; 10 ppm): 3
- average mortality rating ([5]; 25 ppm): 4
- average mortality rating ([5]; 50 ppm): 4
- average mortality rating (Bean Leaf Beetle [6]; 25 ppm): 0 (0-10 percent)
- average mortality rating (Bean Leaf Beetle [6]; 50 ppm): 0 (0-10 percent)
- average mortality rating (Bean Leaf Beetle [6]; 100 ppm): 0 (0-10 percent)
- average mortality rating (Yellow Mealworm Larvae; 0.03 μg/μl): 3
- average mortality rating (Yellow Mealworm Larvae; 0.07 μg/μl): 5
- average mortality rating (Yellow Mealworm Larvae; 0.15 μg/μl): 5
- average mortality rating ([7]; 25 ppm): 4
- average mortality rating ([7]; 50 ppm): 6
- average mortality rating ([7]; 100 ppm): 7
- average mortality rating ([8]; 10 ppm): 1
- average mortality rating ([8]; 25 ppm): 3
- average mortality rating ([8]; 50 ppm): 6
- average mortality rating ([8]; 100 ppm): 5

Compound: CCCCCCOC(=O)n1c(C(F)(F)F)nc2c([N+](=O)[O-])cc(C(F)(F)F)cc21 [E, n-hexyl 2,6-bis(trifluoromethyl)-4-nitro-1-benzimidazolecarboxylate]
- mortality rating (Mexican Bean Beetle; 5 ppm): 2.5
- mortality rating (Mexican Bean Beetle; 10 ppm): 7.5
- average mortality rating (Bean Leaf Beetle [1]; 10 ppm): 0 (0-10 percent)
- average mortality rating (Bean Leaf Beetle [1]; 25 ppm): 1
- average mortality rating (Bean Leaf Beetle [1]; 50 ppm): 0 (0-10 percent)
- mortality rating (Milkweed Bug; 10 ppm): .5
- mortality rating (Milkweed Bug; 25 ppm): 6.5
- mortality rating (Milkweed Bug; 50 ppm): 1.5
- mortality rating (Boll Weevil [2]; 25 ppm): 6.5
- average mortality rating (Squash Bug Adults; 125 ppm): 0 (0-10 percent)
- average mortality rating (Squash Bug Adults; 250 ppm): 2
- average mortality rating (Squash Bug Adults; 500 ppm): 3
- average mortality rating (Squash Bug Adults; 750 ppm): 6
- insect mortality rating (Boll Weevil [3]; .15625 μg/μl): 9 (91-100 percent mortality)
- average mortality rating ([4]; 25 ppm): 4
- average mortality rating ([4]; 50 ppm): 9 (91-100 percent mortality)
- average mortality rating ([4]; 100 ppm): 8
- average mortality rating ([5]; 10 ppm): 3
- average mortality rating ([5]; 25 ppm): 8
- average mortality rating ([5]; 50 ppm): 7
- average mortality rating (Bean Leaf Beetle [6]; 25 ppm): 0 (0-10 percent)
- average mortality rating (Bean Leaf Beetle [6]; 50 ppm): 0 (0-10 percent)
- average mortality rating (Bean Leaf Beetle [6]; 100 ppm): 8
- average mortality rating (Yellow Mealworm Larvae; 0.03 μg/μl): 2
- average mortality rating (Yellow Mealworm Larvae; 0.07 μg/μl): 3
- average mortality rating (Yellow Mealworm Larvae; 0.15 μg/μl): 4
- mortality rating (Oriental Cockroach; 500 ppm): 8.5
- average mortality rating ([7]; 25 ppm): 5
- average mortality rating ([7]; 50 ppm): 5
- average mortality rating ([7]; 100 ppm): 5
- average mortality rating ([8]; 10 ppm): 3
- average mortality rating ([8]; 25 ppm): 1
- average mortality rating ([8]; 50 ppm): 5
- average mortality rating ([8]; 100 ppm): 5

Compound: mixture of benzyl 2,6-bis(trifluoromethyl)-4-nitro-1-benzimidazolecarboxylate and benzyl 2,5-bis(trifluoromethyl)-7-nitro-1-benzimidazolecarboxylate
- mortality rating (Mexican Bean Beetle; 50 ppm): 9 (91-100)
- mortality rating (Mexican Bean Beetle; 100 ppm): 9 (91-100)
- mortality rating (Mexican Bean Beetle; 250 ppm): 9 (91-100)
- mortality rating (Mexican Bean Beetle; 500 ppm): 9 (91-100)
- mortality rating (Mexican Bean Beetle; 1000 ppm): 9 (91-100)
- average mortality rating (Bean Leaf Beetle [1]; 10 ppm): 0 (0-10 percent)
- average mortality rating (Bean Leaf Beetle [1]; 25 ppm): 1
- average mortality rating (Bean Leaf Beetle [1]; 50 ppm): 2
- mortality rating (Milkweed Bug; 10 ppm): 0 (0-10)
- mortality rating (Milkweed Bug; 25 ppm): 0 (0-10)
- mortality rating (Milkweed Bug; 50 ppm): 7 (71-80)
- mortality rating (Milkweed Bug; 250 ppm): 8 (81-90)
- mortality rating (Milkweed Bug; 500 ppm): 8.5
- mortality rating (Milkweed Bug; 1000 ppm): 9 (91-100)
- mortality rating (Boll Weevil [2]; 10 ppm): 4.5
- mortality rating (Boll Weevil [2]; 25 ppm): 8.5
- mortality rating (Boll Weevil [2]; 50 ppm): 7 (71-80)
- mortality rating (Boll Weevil [2]; 100 ppm): 9 (91-100)
- mortality rating (Boll Weevil [2]; 250 ppm): 9 (91-100)
- mortality rating (Boll Weevil [2]; 500 ppm): 9 (91-100)
- mortality rating (Boll Weevil [2]; 1000 ppm): 9 (91-100)
- insect mortality rating (Boll Weevil [3]; .078125 μg/μl): 9 (91-100 percent mortality)
- average mortality rating ([4]; 25 ppm): 4
- average mortality rating ([4]; 50 ppm): 4
- average mortality rating ([4]; 100 ppm): 9 (91-100 percent mortality)
- average mortality rating ([5]; 25 ppm): 9 (91-100 percent mortality)
- average mortality rating ([5]; 50 ppm): 9 (91-100 percent mortality)
- average mortality rating (Bean Leaf Beetle [6]; 25 ppm): 0 (0-10 percent)
- average mortality rating (Bean Leaf Beetle [6]; 50 ppm): 2
- average mortality rating (Bean Leaf Beetle [6]; 100 ppm): 7
- average mortality rating (Yellow Mealworm Larvae; 0.03 μg/μl): 1
- average mortality rating (Yellow Mealworm Larvae; 0.07 μg/μl): 4
- average mortality rating (Yellow Mealworm Larvae; 0.15 μg/μl): 5
- mortality rating (Oriental Cockroach; 50 ppm): 1.5
- mortality rating (Oriental Cockroach; 100 ppm): 3 (31-40)
- mortality rating (Oriental Cockroach; 250 ppm): .5
- mortality rating (Oriental Cockroach; 500 ppm): 1.5
- mortality rating (Oriental Cockroach; 1000 ppm): 9 (91-100)
- average mortality rating ([7]; 25 ppm): 1
- average mortality rating ([7]; 50 ppm): 2
- average mortality rating ([7]; 100 ppm): 4
- average mortality rating ([8]; 10 ppm): 4
- average mortality rating ([8]; 25 ppm): 4
- average mortality rating ([8]; 50 ppm): 5
- average mortality rating ([8]; 100 ppm): 7

Compound: mixture of phenyl 2,6-bis(trifluoromethyl)-4-nitro-1-benzimidazolecarboxylate and phenyl 2,5-bis(trifluoromethyl)-1-benzimidazolecarboxylate
- mortality rating (Mexican Bean Beetle; 10 ppm): 4 (41-50)
- mortality rating (Mexican Bean Beetle; 25 ppm): 3 (31-40)
- mortality rating (Mexican Bean Beetle; 50 ppm): 7 (71-80)
- mortality rating (Mexican Bean Beetle; 100 ppm): 9 (91-100)
- mortality rating (Mexican Bean Beetle; 250 ppm): 9 (91-100)
- mortality rating (Mexican Bean Beetle; 500 ppm): 9 (91-100)
- mortality rating (Mexican Bean Beetle; 1000 ppm): 9 (91-100)
- average mortality rating (Bean Leaf Beetle [1]; 10 ppm): 1
- average mortality rating (Bean Leaf Beetle [1]; 25 ppm): 0 (0-10 percent)
- average mortality rating (Bean Leaf Beetle [1]; 50 ppm): 0 (0-10 percent)
- mortality rating (Milkweed Bug; 250 ppm): 1 (11-20)
- mortality rating (Milkweed Bug; 500 ppm): 9 (91-100)
- mortality rating (Milkweed Bug; 1000 ppm): 9 (91-100)
- mortality rating (Boll Weevil [2]; 10 ppm): 1 (11-20)
- mortality rating (Boll Weevil [2]; 25 ppm): 5.5
- mortality rating (Boll Weevil [2]; 50 ppm): 8 (81-90)
- mortality rating (Boll Weevil [2]; 100 ppm): 9 (91-100)
- mortality rating (Boll Weevil [2]; 250 ppm): 9 (91-100)
- mortality rating (Boll Weevil [2]; 500 ppm): 9 (91-100)
- mortality rating (Boll Weevil [2]; 1000 ppm): 9 (91-100)
- average mortality rating (Squash Bug Adults; 125 ppm): 2
- average mortality rating (Squash Bug Adults; 250 ppm): 2
- average mortality rating (Squash Bug Adults; 500 ppm): 6
- average mortality rating (Squash Bug Adults; 750 ppm): 8
- insect mortality rating (Boll Weevil [3]; .078125 μg/μl): 9 (91-100 percent mortality)
- average mortality rating ([4]; 25 ppm): 0 (0-10 percent)
- average mortality rating ([4]; 50 ppm): 3
- average mortality rating ([4]; 100 ppm): 7
- average mortality rating ([5]; 25 ppm): 1
- average mortality rating ([5]; 50 ppm): 7
- average mortality rating (Bean Leaf Beetle [6]; 25 ppm): 0 (0-10 percent)
- average mortality rating (Bean Leaf Beetle [6]; 50 ppm): 0 (0-10 percent)
- average mortality rating (Bean Leaf Beetle [6]; 100 ppm): 4
- average mortality rating (Yellow Mealworm Larvae; 0.03 μg/μl): 3
- average mortality rating (Yellow Mealworm Larvae; 0.07 μg/μl): 3
- average mortality rating (Yellow Mealworm Larvae; 0.15 μg/μl): 6
- mortality rating (Oriental Cockroach; 50 ppm): 0 (0-10)
- mortality rating (Oriental Cockroach; 100 ppm): .5
- mortality rating (Oriental Cockroach; 250 ppm): 7 (71-80)
- mortality rating (Oriental Cockroach; 500 ppm): 6.5
- mortality rating (Oriental Cockroach; 1000 ppm): 5 (51-60)
- average mortality rating ([7]; 25 ppm): 2 and 3
- average mortality rating ([7]; 50 ppm): 4 and 2
- average mortality rating ([7]; 100 ppm): 6 and 8
- average mortality rating ([8]; 10 ppm): 3
- average mortality rating ([8]; 25 ppm): 4
- average mortality rating ([8]; 50 ppm): 4
- average mortality rating ([8]; 100 ppm): 7
